Blank lines part the entries; values can stand above or below the molecule they belong to.
Assays:
Format in all cases: biochemical
[1] = target: T1, cytochrome bd (C. glutamicum) (Corynebacterium glutamicum, UniProt Q9KWL8); assay: O2 consumption inhibition, Clark-type electrode; details: menaquinol-1 substrate (200 μM quinone, 10 mM DTT); 0.025% DDM, pH 7.5, 37 °C; no cardiolipin
T1 construct: gene cydA; expressed from pPC4-cydABDC in C. glutamicum delta-ctaD, purified from membranes in DDM (CydD and CydC are not oxidase subunits)

[2] = target: T2, cytochrome bd (G. thermodenitrificans) (Geobacillus stearothermophilus, UniProt Q9Z9N1); assay: O2 consumption inhibition, Clark-type electrode; details: menaquinol-1 substrate (200 μM quinone, 10 mM DTT); 0.025% DDM, pH 7.5, 37 °C; no cardiolipin
T2 construct: gene cbdA; CbdAB expressed from pSTE-cbdAB in G. thermodenitrificans K1041, purified from membranes in MEGA9+10
T2 sequence (Q9Z9N1 1-448): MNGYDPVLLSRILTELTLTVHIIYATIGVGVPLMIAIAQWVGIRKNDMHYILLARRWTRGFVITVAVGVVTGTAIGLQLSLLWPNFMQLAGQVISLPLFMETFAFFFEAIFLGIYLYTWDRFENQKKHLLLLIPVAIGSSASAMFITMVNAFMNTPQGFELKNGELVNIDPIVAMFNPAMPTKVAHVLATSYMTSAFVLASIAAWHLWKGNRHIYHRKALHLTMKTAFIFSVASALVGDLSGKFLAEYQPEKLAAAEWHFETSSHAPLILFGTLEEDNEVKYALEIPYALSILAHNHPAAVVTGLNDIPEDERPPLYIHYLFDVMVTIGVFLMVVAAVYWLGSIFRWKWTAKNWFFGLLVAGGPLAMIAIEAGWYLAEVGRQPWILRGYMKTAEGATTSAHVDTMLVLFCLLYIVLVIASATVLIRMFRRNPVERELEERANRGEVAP
T2 sequence (Q9Z9N0 1-342 partner): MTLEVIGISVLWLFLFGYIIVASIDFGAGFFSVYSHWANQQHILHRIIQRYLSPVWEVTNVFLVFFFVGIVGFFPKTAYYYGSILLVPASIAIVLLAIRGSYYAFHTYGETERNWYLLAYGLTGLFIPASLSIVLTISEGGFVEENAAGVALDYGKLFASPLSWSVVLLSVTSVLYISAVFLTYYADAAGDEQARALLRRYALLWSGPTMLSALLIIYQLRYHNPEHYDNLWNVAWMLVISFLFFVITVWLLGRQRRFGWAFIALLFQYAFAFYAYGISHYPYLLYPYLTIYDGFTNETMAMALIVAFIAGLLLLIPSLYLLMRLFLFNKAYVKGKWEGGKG

[3] = target: T1, cytochrome bd (C. glutamicum); assay: O2 consumption, Clark-type electrode; details: 200 μM quinone, 10 mM DTT; 0.025% DDM, pH 7.5, 37 °C; no cardiolipin
[4] = target: T2, cytochrome bd (G. thermodenitrificans); assay: O2 consumption, Clark-type electrode; details: 200 μM quinone, 10 mM DTT; 0.025% DDM, pH 7.5, 37 °C; no cardiolipin
cytochrome bd (E. coli) = target: T3, cytochrome bd (E. coli) (Escherichia coli, UniProt P0ABJ9); assay: O2 consumption activation, Clark-type electrode; details: activator; bovine heart lipid, mixed acyl chains (primarily linoleic acid); ubiquinol-1 substrate; 0.025% DDM, pH 7.5, 37 °C
T3 construct: gene cydA; CydABX complex, Strep-tag, expressed in E. coli MB43, streptactin-purified in DDM
T3 sequence (P0ABJ9 1-522): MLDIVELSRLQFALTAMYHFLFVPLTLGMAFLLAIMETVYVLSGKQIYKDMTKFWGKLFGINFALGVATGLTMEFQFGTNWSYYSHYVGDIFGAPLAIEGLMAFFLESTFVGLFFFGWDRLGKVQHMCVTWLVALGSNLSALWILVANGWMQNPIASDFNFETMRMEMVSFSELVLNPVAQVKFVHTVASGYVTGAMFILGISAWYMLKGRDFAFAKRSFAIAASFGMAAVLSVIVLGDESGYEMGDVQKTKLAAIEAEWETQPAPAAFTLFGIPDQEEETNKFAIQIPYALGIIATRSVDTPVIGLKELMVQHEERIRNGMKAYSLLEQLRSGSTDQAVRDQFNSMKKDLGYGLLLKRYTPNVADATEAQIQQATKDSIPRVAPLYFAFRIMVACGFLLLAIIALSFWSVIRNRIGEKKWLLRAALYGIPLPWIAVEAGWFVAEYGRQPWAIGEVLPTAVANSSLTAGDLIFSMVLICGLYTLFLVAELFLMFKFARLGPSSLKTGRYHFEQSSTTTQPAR
T3 sequence (P0ABK2 1-379 partner): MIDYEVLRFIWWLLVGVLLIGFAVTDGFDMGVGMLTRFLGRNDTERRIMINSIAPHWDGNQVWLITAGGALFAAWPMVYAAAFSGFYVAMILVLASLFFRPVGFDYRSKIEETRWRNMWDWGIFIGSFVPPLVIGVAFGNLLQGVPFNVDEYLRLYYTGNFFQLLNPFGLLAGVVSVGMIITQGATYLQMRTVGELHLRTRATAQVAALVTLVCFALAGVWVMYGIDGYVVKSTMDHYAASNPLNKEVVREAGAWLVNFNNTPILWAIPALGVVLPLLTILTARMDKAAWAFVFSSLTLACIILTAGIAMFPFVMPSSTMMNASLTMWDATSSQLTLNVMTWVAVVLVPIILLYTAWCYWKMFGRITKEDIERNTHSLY
T3 sequence (P56100 1-37 partner): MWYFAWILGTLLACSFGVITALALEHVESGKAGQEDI
Description: O2 consumption activation, Clark-type electrode on cytochrome bd (E. coli) | We examined the effect of CL and observed ~ twofold activation of the oxygen consumption activity

Molecule: CC(C)=CCC/C(C)=C/CC/C(C)=C/Cc1c(C)[nH]c2ccccc2c1=O [aurachin D]
inhibition at 400 nM [1]: oxygen consumption activity in the presence and absence of CL was sensitive to inhibition by aurachin D
inhibition at 400 nM [2]: G. thermodenitrificans cytochrome bd was sensitive to inhibition by aurachin D

Molecule: CC(C)=CCc1c(C)c(O)c2ccccc2c1O [menaquinol-1]
O2 consumption, Clark-type electrode [3]: using menaquinol-1 instead of ubiquinol-1 as substrate
O2 consumption, Clark-type electrode [4]: using menaquinol-1 instead of ubiquinol-1 as substrate

fold activation at 10 μM (cytochrome bd (E. coli)): ~ 2 fold
Molecule: cardiolipin [CL]

From publication PMC8044227, “Cardiolipin enhances the enzymatic activity of cytochrome bd and cytochrome bo3 solubilized in dodecyl-maltoside” (Scientific Reports, 2021)
